# Laboratory results published in ChEMBL document CHEMBL1201862, “PubChem BioAssay data set” (2004).
#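 96-well plates; 48 h exposure; 5 concentrations. Endpoints by linear interpolation between flanking doses. Not reached: highest tested concentration assigned. GI50 = concentration required for 50% inhibition of growth.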 Calls of active or inactive are those of the source. Rule as the data show it: active = GI50 up to about 1.1 µM and inactive = higher.
# Assays:
# Assay in all cases: growth of human tumour cells (NCI), 48 h
# [1] = test system: SK-MEL-5
# [2] = test system: HOP-92
# [3] = test system: UACC-257
# [4] = test system: SF-295
# [5] = test system: LXFL 529
# [6] = test system: HCT-15
# [7] = test system: OVCAR-8
# [8] = test system: OVCAR-4
# [9] = test system: CAKI-1
# [10] = test system: K562
# [11] = test system: SK-MEL-2
# [12] = test system: SF-539
# [13] = test system: BT-549
# [14] = test system: MDA-MB-435
# [15] = test system: DMS-114
# [16] = test system: HT-29
# [17] = test system: HCT-116
# [18] = test system: A498
# [19] = test system: COLO 205
# [20] = test system: LOX IMVI
# [21] = test system: T47D
# [22] = test system: RXF 631
# [23] = test system: M14
# [24] = test system: HOP-18
# [25] = test system: HL-60
# [26] = test system: SK-MEL-28
# [27] = test system: SF-268
# [28] = test system: Hs-578T
# [29] = test system: PC-3
# [30] = test system: RXF 393
# [31] = test system: EKVX
# [32] = test system: RPMI-8226
# [33] = test system: SNB-75
# [34] = test system: MDA-MB-231
# [35] = test system: U-251
# [36] = test system: KM-20L2
# [37] = test system: TK-10
# [38] = test system: Malme-3M
# [39] = test system: DU-145
# [40] = test system: NCI-H23
# [41] = test system: SN12C
# [42] = test system: HOP-62
# [43] = test system: SR
# [44] = test system: IGROV-1
# [45] = test system: HCC 2998
# [46] = test system: M19-MEL
# [47] = test system: ACHN
# [48] = test system: SK-OV-3
# [49] = test system: MOLT-4
# [50] = test system: UO-31
# [51] = test system: CCRF-CEM
# [52] = test system: SW-620
# [53] = test system: MCF7
# [54] = test system: KM12
# [55] = test system: SNB-78
# [56] = test system: NCI-H460
# [57] = test system: OVCAR-5
# [58] = test system: NCI/ADR-RES
# [59] = test system: OVCAR-3
# [60] = test system: 786-0
# [61] = test system: SNB-19
# [62] = test system: A549
# [63] = test system: UACC-62
# [64] = test system: XF498
# [65] = test system: NCI-H226
# [66] = test system: DLD-1
# [67] = test system: DMS-273
smiles,measurement,setting,value
CN(C)CC1CCCC1=O (configuration not stated),GI50,[1],2.86 µM (inactive)
same,GI50,[2],0.973 µM (active)
same,GI50,[3],1.5 µM (inactive)
same,GI50,[4],19.8 µM (inactive)
same,GI50,[5],0.41 µM (active)
same,GI50,[6],0.378 µM
same,GI50,[7],3.62 µM (inactive)
same,GI50,[8],1.97 µM (inactive)
same,GI50,[9],0.139 µM (active)
same,GI50,[10],0.0632 µM (active)
same,GI50,[11],5.21 µM (inactive)
same,GI50,[12],7.89 µM (inactive)
same,GI50,[13],4.97 µM (inactive)
same,GI50,[14],4.39 µM (inactive)
same,GI50,[15],1.08 µM (active)
same,GI50,[16],0.682 µM (active)
same,GI50,[17],0.944 µM (active)
same,GI50,[18],10.5 µM (inactive)
same,GI50,[19],0.56 µM (active)
same,GI50,[20],1.57 µM (inactive)
same,GI50,[21],3.65 µM (inactive)
same,GI50,[22],0.138 µM (active)
same,GI50,[23],1.16 µM (inactive)
same,GI50,[24],1.73 µM (inactive)
same,GI50,[25],0.084 µM (active)
same,GI50,[26],2.98 µM (inactive)
same,GI50,[27],5.85 µM (inactive)
same,GI50,[28],17.9 µM (inactive)
same,GI50,[29],8.09 µM (inactive)
same,GI50,[30],2.55 µM (inactive)
same,GI50,[31],1.71 µM (inactive)
same,GI50,[32],0.0502 µM (active)
same,GI50,[33],3.78 µM (inactive)
same,GI50,[34],2.64 µM (inactive)
same,GI50,[35],6.82 µM (inactive)
same,GI50,[36],1.67 µM (inactive)
same,GI50,[37],2.96 µM (inactive)
same,GI50,[38],1.02 µM (active)
same,GI50,[39],17.5 µM (inactive)
same,GI50,[40],4.48 µM (inactive)
same,GI50,[41],1.06 µM (active)
same,GI50,[42],17.9 µM (inactive)
same,GI50,[43],0.0479 µM (active)
same,GI50,[44],7.57 µM (inactive)
same,GI50,[45],2.17 µM (inactive)
same,GI50,[46],0.857 µM (active)
same,GI50,[47],3.03 µM (inactive)
same,GI50,[48],15.3 µM (inactive)
same,GI50,[49],0.144 µM (active)
same,GI50,[50],9.38 µM (inactive)
same,GI50,[51],0.138 µM (active)
same,GI50,[52],0.2 µM (active)
same,GI50,[53],0.408 µM (active)
same,GI50,[54],1.66 µM (inactive)
same,GI50,[55],2.48 µM (inactive)
same,GI50,[56],10.5 µM (inactive)
same,GI50,[57],5.42 µM (inactive)
same,GI50,[58],20.7 µM (inactive)
same,GI50,[59],1.51 µM (inactive)
same,GI50,[60],7.53 µM (inactive)
same,GI50,[61],31 µM (inactive)
same,GI50,[62],24 µM (inactive)
same,GI50,[63],4.37 µM (inactive)
same,GI50,[64],0.687 µM (active)
same,GI50,[65],14.4 µM (inactive)
same,GI50,[66],0.195 µM (active)
same,GI50,[67],1.55 µM (inactive)
